We go through two compounds from PMC9298352, “Design, Synthesis and Structural Analysis of Glucocerebrosidase Imaging Agents” (Chemistry (Weinheim an Der Bergstrasse, Germany), 2021).

Each structure is given as a SMILES string. Bounds are passed on as bounds.

For one assay, the target named is T1, rhGBA (Homo sapiens, UniProt P04062).
T1 construct: made in house; host or cells: insect-baculovirus expression vector system (BEVS)
T1 sequence (P04062 40-536): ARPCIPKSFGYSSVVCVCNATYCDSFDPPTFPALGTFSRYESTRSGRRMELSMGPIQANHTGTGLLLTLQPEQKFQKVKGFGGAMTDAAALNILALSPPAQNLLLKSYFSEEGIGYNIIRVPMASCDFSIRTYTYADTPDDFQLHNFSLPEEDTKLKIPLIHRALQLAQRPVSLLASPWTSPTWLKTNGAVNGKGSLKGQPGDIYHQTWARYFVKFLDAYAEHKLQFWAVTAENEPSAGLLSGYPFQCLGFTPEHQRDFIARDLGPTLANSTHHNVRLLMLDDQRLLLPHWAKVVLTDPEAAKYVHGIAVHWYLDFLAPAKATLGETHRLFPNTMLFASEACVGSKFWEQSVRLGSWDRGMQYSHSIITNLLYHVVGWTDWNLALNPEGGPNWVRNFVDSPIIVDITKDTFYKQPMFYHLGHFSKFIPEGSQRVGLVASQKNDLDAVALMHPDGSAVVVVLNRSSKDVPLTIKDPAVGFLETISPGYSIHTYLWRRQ
Put plainly: Time-dependent labelling of rhGBA with galacto-ABP 7 and gluco-ABP 8 (SDS-PAGE, Cy5 fluorescence). The format is biochemical. As to conditions: rhGBA 700 nM, ABP 150 nM. The procedure:
To rapidly investigate for cross‐reactivity with galacto‐configured cyclophellitol aziridines, time‐dependent labelling assays of rhGBA with galacto‐configured Cy5‐tagged aziridine ABP 7 were performed (Figure 3).
Figure 3 Time dependent labelling of rhGBA (700 nM) by Cy5‐tagged galacto‐ABP 7 (150 nM) after 2, 5, 10, 30 and 60 mins showing that labelling reaches saturation at 30 mins. In comparison, labelling by Cy5‐tagged gluco‐ABP 8 (150 nM) reaches saturation in 2mins. […] ABP labelled rhGBA (60 kDa) visualized by Cy5 fluorescent readout.
rhGBA produced in BEVS[58] was prepared at 700 nM in 150 mM McIlvaine buffer pH 5.2 (containing 0.1 % (v/v) Triton X‐100 and 0.2 % (w/v) sodium taurocholate) and ABP 7 or ABP 8 were added to 150 nM. The reactions were incubated at 37 °C and aliquots were taken at 2, 5, 10, 30 and 60 mins. The aliquots were immediately denatured with Laemmli (x3) sample buffer by heating at 95 °C for 5 minutes. The samples were resolved by electrophoresis in 10 % SDS‐PAGE gels, running at 200 V for ∼50 minutes. Wet slab gels were scanned on fluorescence using an AmershamTyphoon 5 Imager (GE Healthcare) with λEX 635 nm; λEM >665 nm.

The next assay deals with GBA. As to conditions: read-out: apparent IC50 for GBA; cited from earlier work.

For the compound `C[N+]1=C(C=CC=CC=C2N(CCCCCC(=O)NCc3ccc(C4=C5C(C=NN4)C4CC(C(=O)NCCCCCCN6C7C(O)C(O)C(O)C(CO)C76)C5C4)cc3)c3ccccc3C2(C)C)C(C)(C)c2ccccc21` (stereo not shown) [ABP 7], the “time to saturation of rhGBA labelling (Figure 3 legend)” value at rhGBA stood at 30 min. Also, at rhGBA (pH 5.2, 37 °C), the “time to saturation of rhGBA labelling” value was no more than 30 min and the “time within which rhGBA is labelled” value is no more than 2 min.

The term IC50 denotes the concentration that gives 50% inhibition. Consider `OC[C@@H]1[C@@H](O)[C@H](O)[C@@H](O)[C@@H]2N[C@H]12` [compound 2, cyclophellitol aziridine], for which, in the assay on GBA, the half-inhibitory concentration (IC50) was 500 nM.
